Values quoted from earlier work as cited in patent US11638718B2, “Treatment of alphavirus-induced inflammation” (priority 2016, dated 2023).

Test system: alphavirus
Details: earlier studies by the group (refs 30, 55-57); cited from earlier work

For `CN(Cc1cnc2nc(N)nc(N)c2n1)c1ccc(C(=O)N[C@@H](CCC(=O)O)C(=O)O)cc1` [methotrexate], the “effect on alphavirus disease” value is given as “increased the onset of RRV-induced musculoskeletal disease”.
